Measured values reported in ChEMBL document CHEMBL3352227, “Synthesis, antimycobacterial and antibacterial evaluation of l-[(1R, 2S)-2-fluorocyclopropyl]fluoroquinolone derivatives containing an oxime functional moiety” (Eur J Med Chem, 2014).
Converted amounts (≈) assume the structure as drawn.

Tests used:
Assay type in all cases: functional
[1] = test system: Staphylococcus epidermidis; assay: Antibacterial activity against methicillin-sensitive Staphylococcus epidermidis 12-6 after 18 to 24 hrs by standard twofold serial dilution method
[2] = test system: Streptococcus pneumoniae; assay: Antibacterial activity against Streptococcus pneumoniae ATCC 49619 after 18 to 24 hrs by standard twofold serial dilution method
[3] = test system: Klebsiella pneumoniae; assay: Antibacterial activity against extended-spectrum beta-lactamase producin Klebsiella pneumoniae 12-14 after 18 to 24 hrs by standard twofold serial dilution method
[4] = test system: Klebsiella pneumoniae; assay: Antibacterial activity against Klebsiella pneumoniae 12-4 after 18 to 24 hrs by standard twofold serial dilution method
[5] = test system: Staphylococcus epidermidis; assay: Antibacterial activity against methicillin-resistant Staphylococcus epidermidis 12-6 after 18 to 24 hrs by standard twofold serial dilution method
[6] = test system: Staphylococcus aureus; assay: Antibacterial activity against methicillin-sensitive Staphylococcus aureus 12-4 after 18 to 24 hrs by standard twofold serial dilution method
[7] = test system: Escherichia coli; assay: Antibacterial activity against extended-spectrum beta-lactamase producing Escherichia coli 12-14 after 18 to 24 hrs by standard twofold serial dilution method
[8] = test system: Staphylococcus aureus; assay: Antibacterial activity against methicillin-sensitive Staphylococcus aureus 12-1 after 18 to 24 hrs by standard twofold serial dilution method
[9] = test system: Klebsiella pneumoniae; assay: Antibacterial activity against extended-spectrum beta-lactamase producin Klebsiella pneumoniae 12-7 after 18 to 24 hrs by standard twofold serial dilution method
[10] = test system: Staphylococcus aureus; assay: Antibacterial activity against Staphylococcus aureus ATCC 25923 after 18 to 24 hrs by standard twofold serial dilution method
[11] = test system: Klebsiella pneumoniae; assay: Antibacterial activity against extended-spectrum beta-lactamase producin Klebsiella pneumoniae 12-3 after 18 to 24 hrs by standard twofold serial dilution method
[12] = test system: Staphylococcus aureus; assay: Antibacterial activity against methicillin-sensitive Staphylococcus aureus 12-2 after 18 to 24 hrs by standard twofold serial dilution method
[13] = test system: Mycobacterium tuberculosis; assay: Antimycobacterial activity against Mycobacterium tuberculosis H37Rv ATCC 27294 by MABA method
[14] = test system: Escherichia coli; assay: Antibacterial activity against extended-spectrum beta-lactamase producing Escherichia coli 12-2 after 18 to 24 hrs by standard twofold serial dilution method
[15] = test system: Escherichia coli; assay: Antibacterial activity against extended-spectrum beta-lactamase producing Escherichia coli 12-15 after 18 to 24 hrs by standard twofold serial dilution method
[16] = test system: Staphylococcus epidermidis; assay: Antibacterial activity against methicillin-sensitive Staphylococcus epidermidis 12-3 after 18 to 24 hrs by standard twofold serial dilution method
[17] = test system: Klebsiella pneumoniae; assay: Antibacterial activity against Klebsiella pneumoniae 12-2 after 18 to 24 hrs by standard twofold serial dilution method
[18] = test system: Klebsiella pneumoniae; assay: Antibacterial activity against Klebsiella pneumoniae 12-1 after 18 to 24 hrs by standard twofold serial dilution method
[19] = test system: Klebsiella pneumoniae; assay: Antibacterial activity against extended-spectrum beta-lactamase producin Klebsiella pneumoniae 12-4 after 18 to 24 hrs by standard twofold serial dilution method
[20] = test system: Staphylococcus epidermidis; assay: Antibacterial activity against methicillin-sensitive Staphylococcus epidermidis 12-1 after 18 to 24 hrs by standard twofold serial dilution method
[21] = test system: Staphylococcus epidermidis; assay: Antibacterial activity against methicillin-resistant Staphylococcus epidermidis 12-1 after 18 to 24 hrs by standard twofold serial dilution method
[22] = test system: Streptococcus pneumoniae; assay: Antibacterial activity against Streptococcus pneumoniae 12-18 after 18 to 24 hrs by standard twofold serial dilution method
[23] = test system: Staphylococcus aureus; assay: Antibacterial activity against methicillin-resistant Staphylococcus aureus 12-5 after 18 to 24 hrs by standard twofold serial dilution method
[24] = test system: Staphylococcus aureus; assay: Antibacterial activity against methicillin-sensitive Staphylococcus aureus 12-5 after 18 to 24 hrs by standard twofold serial dilution method
[25] = test system: Staphylococcus epidermidis; assay: Antibacterial activity against methicillin-sensitive Staphylococcus epidermidis 12-8 after 18 to 24 hrs by standard twofold serial dilution method
[26] = test system: Pseudomonas aeruginosa; assay: Antibacterial activity against Pseudomonas aeruginosa 12-12 after 18 to 24 hrs by standard twofold serial dilution method
[27] = test system: Pseudomonas aeruginosa; assay: Antibacterial activity against Pseudomonas aeruginosa 12-14 after 18 to 24 hrs by standard twofold serial dilution method
[28] = test system: Escherichia coli; assay: Antibacterial activity against extended-spectrum beta-lactamase producing Escherichia coli 12-3 after 18 to 24 hrs by standard twofold serial dilution method
[29] = test system: Staphylococcus aureus; assay: Antibacterial activity against methicillin-resistant Staphylococcus aureus 12-2 after 18 to 24 hrs by standard twofold serial dilution method
[30] = test system: Escherichia coli; assay: Antibacterial activity against Escherichia coli 12-1 after 18 to 24 hrs by standard twofold serial dilution method
[31] = test system: Escherichia coli; assay: Antibacterial activity against Escherichia coli ATCC 25922 after 18 to 24 hrs by standard twofold serial dilution method
[32] = test system: Staphylococcus aureus; assay: Antibacterial activity against methicillin-resistant Staphylococcus aureus 12-4 after 18 to 24 hrs by standard twofold serial dilution method

| SMILES | MIC [1] [µg/mL] | MIC [2] [µg/mL] | MIC [3] [µg/mL] | MIC [4] [µg/mL] | MIC [5] [µg/mL] | MIC [6] [µg/mL] | MIC [7] [µg/mL] | MIC [8] [µg/mL] | MIC [9] [µg/mL] | MIC [10] [µg/mL] | MIC [11] [µg/mL] | MIC [12] [µg/mL] | MIC [13] [µg/mL] | MIC [14] [µg/mL] | MIC [15] [µg/mL] | MIC [16] [µg/mL] | MIC [17] [µg/mL] | MIC [18] [µg/mL] | MIC [19] [µg/mL] | MIC [20] [µg/mL] | other results |
| --- | --- | --- | --- | --- | --- | --- | --- | --- | --- | --- | --- | --- | --- | --- | --- | --- | --- | --- | --- | --- | --- |
| CCO/N=C1/CN(c2nc3c(cc2F)c(=O)c(C(=O)O)cn3[C@@H]2C[C@@H]2F)[C@H]1CN | 0.25 (≈ 0.614 µM) | 0.5 (≈ 1.23 µM) | 64 (≈ 157 µM) | 0.25 (≈ 0.614 µM) | 16 (≈ 39.3 µM) | 0.25 (≈ 0.614 µM) | 128 (≈ 314 µM) | 0.5 (≈ 1.23 µM) | 4 (≈ 9.82 µM) | 0.5 (≈ 1.23 µM) | 128 (≈ 314 µM) | 0.25 (≈ 0.614 µM) | 1 (≈ 2.45 µM) | > 128 | > 128 | 1 (≈ 2.45 µM) | 0.5 (≈ 1.23 µM) | 0.5 (≈ 1.23 µM) | 8 (≈ 19.6 µM) | 0.5 (≈ 1.23 µM) | MIC [21]: 16 µg/mL (≈ 39.3 µM); MIC [22]: 4 µg/mL (≈ 9.82 µM); MIC [23]: 64 µg/mL (≈ 157 µM); MIC [24]: 0.5 µg/mL (≈ 1.23 µM); MIC [25]: 16 µg/mL (≈ 39.3 µM); MIC [26]: 1 µg/mL (≈ 2.45 µM); MIC [27]: 32 µg/mL (≈ 78.6 µM); MIC [28]: 16 µg/mL (≈ 39.3 µM); MIC [29]: 64 µg/mL (≈ 157 µM); MIC [30]: 2 µg/mL (≈ 4.91 µM); MIC [31]: 0.125 µg/mL (≈ 0.307 µM); MIC [32]: 64 µg/mL (≈ 157 µM) |
| NC[C@H]1/C(=N\OCc2ccccc2)CN1c1nc2c(cc1F)c(=O)c(C(=O)O)cn2[C@@H]1C[C@@H]1F | 0.25 (≈ 0.533 µM) | 0.5 (≈ 1.07 µM) | > 128 | 1 (≈ 2.13 µM) | 8 (≈ 17 µM) | 0.125 (≈ 0.266 µM) | > 128 | 0.25 (≈ 0.533 µM) | 4 (≈ 8.52 µM) | 0.125 (≈ 0.266 µM) | > 128 | 0.25 (≈ 0.533 µM) | 2 (≈ 4.26 µM) | > 128 | > 128 | 0.5 (≈ 1.07 µM) | 1 (≈ 2.13 µM) | 0.5 (≈ 1.07 µM) | 16 (≈ 34.1 µM) | 0.25 (≈ 0.533 µM) | MIC [21]: 16 µg/mL (≈ 34.1 µM); MIC [22]: 4 µg/mL (≈ 8.52 µM); MIC [23]: 32 µg/mL (≈ 68.2 µM); MIC [24]: 0.25 µg/mL (≈ 0.533 µM); MIC [25]: 8 µg/mL (≈ 17 µM); MIC [26]: 4 µg/mL (≈ 8.52 µM); MIC [27]: 64 µg/mL (≈ 136 µM); MIC [28]: 32 µg/mL (≈ 68.2 µM); MIC [29]: 64 µg/mL (≈ 136 µM); MIC [30]: 0.25 µg/mL (≈ 0.533 µM); MIC [31]: 0.125 µg/mL (≈ 0.266 µM); MIC [32]: 32 µg/mL (≈ 68.2 µM) |
| CO/N=C1/CN(c2nc3c(cc2F)c(=O)c(C(=O)O)cn3[C@@H]2C[C@@H]2F)[C@@H]1CN | 0.5 (≈ 1.27 µM) | 1 (≈ 2.54 µM) | 128 (≈ 325 µM) | 0.5 (≈ 1.27 µM) | 64 (≈ 163 µM) | 0.5 (≈ 1.27 µM) | > 128 | 1 (≈ 2.54 µM) | 4 (≈ 10.2 µM) | 0.25 (≈ 0.636 µM) | > 128 | 0.5 (≈ 1.27 µM) | 4 (≈ 10.2 µM) | > 128 | > 128 | 0.5 (≈ 1.27 µM) | 0.5 (≈ 1.27 µM) | 1 (≈ 2.54 µM) | 16 (≈ 40.7 µM) | 0.5 (≈ 1.27 µM) | MIC [21]: 64 µg/mL (≈ 163 µM); MIC [22]: 4 µg/mL (≈ 10.2 µM); MIC [23]: > 128 µg/mL; MIC [24]: 0.5 µg/mL (≈ 1.27 µM); MIC [25]: 32 µg/mL (≈ 81.4 µM); MIC [26]: 2 µg/mL (≈ 5.08 µM); MIC [27]: 128 µg/mL (≈ 325 µM); MIC [28]: 16 µg/mL (≈ 40.7 µM); MIC [29]: > 128 µg/mL; MIC [30]: 2 µg/mL (≈ 5.08 µM); MIC [31]: 0.25 µg/mL (≈ 0.636 µM); MIC [32]: > 128 µg/mL |
| CCO/N=C1/CN(c2nc3c(cc2F)c(=O)c(C(=O)O)cn3[C@@H]2C[C@@H]2F)[C@@H]1CN | 0.5 (≈ 1.23 µM) | 2 (≈ 4.91 µM) | > 128 | 1 (≈ 2.45 µM) | 32 (≈ 78.6 µM) | 0.25 (≈ 0.614 µM) | > 128 | 0.5 (≈ 1.23 µM) | 8 (≈ 19.6 µM) | 0.25 (≈ 0.614 µM) | > 128 | 0.5 (≈ 1.23 µM) | 4 (≈ 9.82 µM) | > 128 | > 128 | 2 (≈ 4.91 µM) | 1 (≈ 2.45 µM) | 1 (≈ 2.45 µM) | 32 (≈ 78.6 µM) | 0.5 (≈ 1.23 µM) | MIC [21]: 64 µg/mL (≈ 157 µM); MIC [22]: 8 µg/mL (≈ 19.6 µM); MIC [23]: > 128 µg/mL; MIC [24]: 0.5 µg/mL (≈ 1.23 µM); MIC [25]: 32 µg/mL (≈ 78.6 µM); MIC [26]: 4 µg/mL (≈ 9.82 µM); MIC [27]: 128 µg/mL (≈ 314 µM); MIC [28]: 32 µg/mL (≈ 78.6 µM); MIC [29]: > 128 µg/mL; MIC [30]: 2 µg/mL (≈ 4.91 µM); MIC [31]: 0.5 µg/mL (≈ 1.23 µM); MIC [32]: > 128 µg/mL |
| NC[C@@H]1/C(=N\OCc2ccccc2)CN1c1nc2c(cc1F)c(=O)c(C(=O)O)cn2[C@@H]1C[C@@H]1F | 0.5 (≈ 1.07 µM) | 1 (≈ 2.13 µM) | 128 (≈ 273 µM) | 1 (≈ 2.13 µM) | 32 (≈ 68.2 µM) | 0.25 (≈ 0.533 µM) | > 128 | 0.5 (≈ 1.07 µM) | 8 (≈ 17 µM) | 0.5 (≈ 1.07 µM) | > 128 | 0.25 (≈ 0.533 µM) | 2 (≈ 4.26 µM) | > 128 | > 128 | 1 (≈ 2.13 µM) | 1 (≈ 2.13 µM) | 1 (≈ 2.13 µM) | 32 (≈ 68.2 µM) | 0.5 (≈ 1.07 µM) | MIC [21]: 32 µg/mL (≈ 68.2 µM); MIC [22]: 4 µg/mL (≈ 8.52 µM); MIC [23]: 128 µg/mL (≈ 273 µM); MIC [24]: 0.25 µg/mL (≈ 0.533 µM); MIC [25]: 32 µg/mL (≈ 68.2 µM); MIC [26]: 8 µg/mL (≈ 17 µM); MIC [27]: 128 µg/mL (≈ 273 µM); MIC [28]: 16 µg/mL (≈ 34.1 µM); MIC [29]: 128 µg/mL (≈ 273 µM); MIC [30]: 4 µg/mL (≈ 8.52 µM); MIC [31]: 0.5 µg/mL (≈ 1.07 µM); MIC [32]: 128 µg/mL (≈ 273 µM) |
